The text below walks through data of BindingDB's records for doi:10.1021/jm00015a023 (Research Triangle Institute, 1995).

The structures appear in SMILES notation.

In assay [1] the target is Sigma non-opioid intracellular receptor 1 (Homo sapiens, UniProt Q99720). In words: Binding affinity was measured on Sigma receptor type 1 using [3H]- pentazocine as radioligand.
A short description of assay [2]: Binding affinity was measured on Sigma receptor type 2 using [3H]- DTG as radioligand.
Assay [3] is described as follows: Binding affinity was measured on Sigma receptor type 1 using [3H]- pentazocine as radioligand.
Experiment in assay [4]: as above
This is another data set of the same source.

Sigma non-opioid intracellular receptor 1, sequence (Q99720 whole entry): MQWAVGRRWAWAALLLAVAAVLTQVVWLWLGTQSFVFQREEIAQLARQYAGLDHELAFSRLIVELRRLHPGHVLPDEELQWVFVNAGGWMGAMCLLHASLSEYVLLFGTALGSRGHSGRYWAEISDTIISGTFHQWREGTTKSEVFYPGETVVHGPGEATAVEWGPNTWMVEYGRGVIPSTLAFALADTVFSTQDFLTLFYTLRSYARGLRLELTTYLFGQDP

In assay [1], `CC(C)=CCN1CCC2(C)c3cc(O)c(I)cc3CC1C2C` (stereo not given) [9-Iodo-6,11-dimethyl-3-(3-methyl-but-2-enyl)-1,2,3,4,5,6-hexahydro-2,6-methano-benzo[d]azocin-8-ol] returned an inhibitory constant (Ki) of 35.2 nM.

Consider `CC1C2Cc3cc(Br)c(O)cc3C1(C)CCN2Cc1ccccc1` (stereo not given) [3-Benzyl-9-bromo-6,11-dimethyl-1,2,3,4,5,6-hexahydro-2,6-methano-benzo[d]azocin-8-ol], for which the Ki in assay [2] amounted to 1220 nM; in assay [3], 68.6 nM.

In the case of `CC(C)=CCN1CCC2(C)c3c(ccc(O)c3Br)CC1C2C` (stereo not given) [7-Bromo-6,11-dimethyl-3-(3-methyl-but-2-enyl)-1,2,3,4,5,6-hexahydro-2,6-methano-benzo[d]azocin-8-ol], the Ki in assay [2] stood at 283 nM; in assay [3], 2.49 nM.

In the case of `CC1C2Cc3cc(Br)c(O)c(Br)c3C1(C)CCN2Cc1ccccc1` (stereo not given) [3-Benzyl-7,9-dibromo-6,11-dimethyl-1,2,3,4,5,6-hexahydro-2,6-methano-benzo[d]azocin-8-ol], the inhibition constant (Ki) in assay [2] is 2010 nM; in assay [4] it was 70.6 nM.

Take `CC1C2Cc3cc(Cl)c(O)c(Cl)c3C1(C)CCN2Cc1ccccc1` (stereo not given) [3-Benzyl-7,9-dichloro-6,11-dimethyl-1,2,3,4,5,6-hexahydro-2,6-methano-benzo[d]azocin-8-ol]: the Ki in assay [2] was determined as 2170 nM; in assay [3] it was 71.5 nM.

As to `CC(C)=CCN1CCC2(C)c3c(ccc(O)c3Cl)CC1C2C` (stereo not given) [7-Chloro-6,11-dimethyl-3-(3-methyl-but-2-enyl)-1,2,3,4,5,6-hexahydro-2,6-methano-benzo[d]azocin-8-ol], the Ki in assay [2] is 4960 nM; in assay [3], 2.62 nM.

As for `CC1C2Cc3ccc(O)c(Cl)c3C1(C)CCN2Cc1ccccc1` (stereo not given) [3-Benzyl-7-chloro-6,11-dimethyl-1,2,3,4,5,6-hexahydro-2,6-methano-benzo[d]azocin-8-ol], the figures for the Ki in assay [2] and in assay [3] were 764 nM and 1.72 nM, respectively.

`CC(C)=CCN1CCC2(C)c3c(cc(Br)c(O)c3Br)CC1C2C` (stereo not given) [7,9-Dibromo-6,11-dimethyl-3-(3-methyl-but-2-enyl)-1,2,3,4,5,6-hexahydro-2,6-methano-benzo[d]azocin-8-ol]: the Ki in assay [2] amounted to 211 nM; in assay [3], 120 nM.

Take `CC1C2Cc3ccc(O)c(Br)c3C1(C)CCN2Cc1ccccc1` (stereo not given) [3-Benzyl-7-bromo-6,11-dimethyl-1,2,3,4,5,6-hexahydro-2,6-methano-benzo[d]azocin-8-ol]: the Ki worked out at 346 nM in assay [2] and 1.75 nM in assay [3].

As for `CC1C2Cc3cc(I)c(O)cc3C1(C)CCN2Cc1ccccc1` (stereo not given) [3-Benzyl-9-iodo-6,11-dimethyl-1,2,3,4,5,6-hexahydro-2,6-methano-benzo[d]azocin-8-ol], the values for the Ki in assay [2] and in assay [3] were 597 nM and 231 nM, respectively.

In the case of `CC(C)=CCN1CCC2(C)c3cc(O)c(Br)cc3CC1C2C` (stereo not given) [9-Bromo-6,11-dimethyl-3-(3-methyl-but-2-enyl)-1,2,3,4,5,6-hexahydro-2,6-methano-benzo[d]azocin-8-ol], in assay [1], the affinity corresponds to a Ki of 144 nM.
